Earlier results, collected in PubChem BioAssay AID1259409 (Chemical Carcinogenesis Research Information System (CCRIS), 2018).

Tested on: rodent chemically induced tumor inhibition, incidence and multiplicity
Test: CCRIS tumor inhibitor studies

C[C@]12CC[C@H](O)CC1=CC[C@@H]1[C@@H]2CC[C@]2(C)C(=O)CC[C@@H]12
tumour outcome (control, treated, inhibition, significance) (Carcinogen: N-METHYL-N-NITROSOUREA, 684-93-5, Dose [Inhibitor]: 0, 5 PPM IN DIET FOR DURATION OF STUDY BEGINNING 1 WK PRIOR TO CARCINOGEN DOSE (STUDY DURATION: 109 D), Route [Inhibitor]: ORAL, Species: RAT, Strain/Sex: SPRAGUE-DAWLEY/FEMALE, Target Tissue: Type of Lesion: MAMMARY GLAND: TUMOR, Dose [Carcinogen]: 50 MG/KG BW IN ACIDIFIED SALINE (PH 5.0) ONCE, Promoter: NONE USED): 100%, 89%, 11%, not calculated
tumour outcome (control, treated, inhibition, significance) (Carcinogen: N-METHYL-N-NITROSOUREA, 684-93-5, Dose [Inhibitor]: 0, 24 PPM IN DIET FOR DURATION OF STUDY BEGINNING 1 WK PRIOR TO CARCINOGEN DOSE (STUDY DURATION: 109 D), Route [Inhibitor]: ORAL, Species: RAT, Strain/Sex: SPRAGUE-DAWLEY/FEMALE, Target Tissue: Type of Lesion: MAMMARY GLAND: TUMOR, Dose [Carcinogen]: 50 MG/KG BW IN ACIDIFIED SALINE (PH 5.0) ONCE, Promoter: NONE USED): 100%, 80%, 20%, not calculated
tumour outcome (control, treated, inhibition, significance) (Carcinogen: N-METHYL-N-NITROSOUREA, 684-93-5, Dose [Inhibitor]: 0, 120 PPM IN DIET FOR DURATION OF STUDY BEGINNING 1 WK PRIOR TO CARCINOGEN DOSE (STUDY DURATION: 109 D), Route [Inhibitor]: ORAL, Species: RAT, Strain/Sex: SPRAGUE-DAWLEY/FEMALE, Target Tissue: Type of Lesion: MAMMARY GLAND: TUMOR, Dose [Carcinogen]: 50 MG/KG BW IN ACIDIFIED SALINE (PH 5.0) ONCE, Promoter: NONE USED): 100%, 80%, 20%, not calculated
tumour outcome (control, treated, inhibition, significance) (Carcinogen: N-METHYL-N-NITROSOUREA, 684-93-5, Dose [Inhibitor]: 0, 400 MG/KG DIET FOR DURATION OF STUDY BEGINNING 1 WK PRIOR TO CARCINOGEN DOSE (STUDY DURATION: 187 D), Route [Inhibitor]: ORAL, Species: RAT, Strain/Sex: SPRAGUE-DAWLEY/FEMALE, Target Tissue: Type of Lesion: MAMMARY GLAND: TUMOR, Dose [Carcinogen]: 35 MG/KG BW ONCE, Promoter: NONE USED): 85%, 0%, 100%, p<0.01
tumour outcome (control, treated, inhibition, significance) (Carcinogen: N-METHYL-N-NITROSOUREA, 684-93-5, Dose [Inhibitor]: 0, 600 PPM IN DIET FOR DURATION OF STUDY BEGINNING 1 WK PRIOR TO CARCINOGEN DOSE (STUDY DURATION: 109 D), Route [Inhibitor]: ORAL, Species: RAT, Strain/Sex: SPRAGUE-DAWLEY/FEMALE, Target Tissue: Type of Lesion: MAMMARY GLAND: TUMOR, Dose [Carcinogen]: 50 MG/KG BW IN ACIDIFIED SALINE (PH 5.0) ONCE, Promoter: NONE USED): 100%, 40%, 60%, not calculated
tumour outcome (control, treated, inhibition, significance) (Carcinogen: N-METHYL-N-NITROSOUREA, 684-93-5, Dose [Inhibitor]: 0, 800 MG/KG DIET FOR DURATION OF STUDY BEGINNING 1 WK PRIOR TO CARCINOGEN DOSE (STUDY DURATION: 187 D), Route [Inhibitor]: ORAL, Species: RAT, Strain/Sex: SPRAGUE-DAWLEY/FEMALE, Target Tissue: Type of Lesion: MAMMARY GLAND: TUMOR, Dose [Carcinogen]: 35 MG/KG BW ONCE, Promoter: NONE USED): 70%, 0%, 100%, p<0.01
tumour outcome (control, treated, inhibition, significance) (Carcinogen: N-NITROSOMORPHOLINE, 59-89-2, Dose [Inhibitor]: 0.25% IN DIET (STUDY DURATION: 51 WK), Route [Inhibitor]: ORAL, Species: RAT, Strain/Sex: SPRAGUE-DAWLEY/MALE, Target Tissue: Type of Lesion: LIVER: HEMANGIOSARCOMA, Dose [Carcinogen]: 120 MG/L IN DRINKING WATER FOR FIRST 7 WK OF STUDY, Promoter: NONE USED): 8/35 (23%), 1/35 (3%), 88%, p<0.05
tumour outcome (control, treated, inhibition, significance) (Carcinogen: N-NITROSOMORPHOLINE, 59-89-2, Dose [Inhibitor]: 0.25% IN DIET (STUDY DURATION: 51 WK), Route [Inhibitor]: ORAL, Species: RAT, Strain/Sex: SPRAGUE-DAWLEY/MALE, Target Tissue: Type of Lesion: LIVER: HEPATOCELLULAR ADENOMA, MIXED CELL, Dose [Carcinogen]: 120 MG/L IN DRINKING WATER FOR FIRST 7 WK OF STUDY, Promoter: NONE USED): 32/35 (91%), 28/35 (80%), 14%, not calculated
tumour outcome (control, treated, inhibition, significance) (Carcinogen: N-NITROSOMORPHOLINE, 59-89-2, Dose [Inhibitor]: 0.25% IN DIET (STUDY DURATION: 51 WK), Route [Inhibitor]: ORAL, Species: RAT, Strain/Sex: SPRAGUE-DAWLEY/MALE, Target Tissue: Type of Lesion: LIVER: HEPATOCELLULAR CARCINOMA, Dose [Carcinogen]: 120 MG/L IN DRINKING WATER FOR FIRST 7 WK OF STUDY, Promoter: NONE USED): 33%, 20%, 39%, not calculated
tumour outcome (control, treated, inhibition, significance) (Carcinogen: N-methyl-N-nitrosourea, 684-93-5, Dose [Inhibitor]: 125 mg/kg in diet for 6 wks starting 6 wks after administration of carcinogen, Route [Inhibitor]: Oral, Species: Rat, Strain/Sex: Sprague Dawley/Female, Target Tissue: Type of Lesion: Mammary gland: tumors, Dose [Carcinogen]: 50 mg/kg injected once in 50 d old mice, tumors allowed to develop for 6 wks before inhibitor administration (Test mater, Promoter: None used): 93.3%, 96.7%, -0.03%, not significant
tumour outcome (control, treated, inhibition, significance) (Carcinogen: N-methyl-N-nitrosourea, 684-93-5, Dose [Inhibitor]: 1000 mg/kg in diet for 6 wks starting 6 wks after administration of carcinogen, Route [Inhibitor]: Oral, Species: Rat, Strain/Sex: Sprague Dawley/Female, Target Tissue: Type of Lesion: Mammary gland: tumors, Dose [Carcinogen]: 50 mg/kg injected once in 50 d old mice, tumors allowed to develop for 6 wks before inhibitor administration (Test mater, Promoter: None used): 93.3%, 76.7%, 17.8%, not significant
tumour outcome (control, treated, inhibition, significance) (Carcinogen: NONE USED, Dose [Inhibitor]: 0, 0.45% IN DIET FOR DURATION OF STUDY (STUDY DURATION: 84 WK), Route [Inhibitor]: ORAL, Species: RAT, Strain/Sex: F344/MALE, Target Tissue: Type of Lesion: TESTES: LEYDIG CELL TUMOR, Promoter: NONE USED): 8/8 (100%), 0/13 (0%), 100%, p<0.005
tumour outcome (control, treated, inhibition, significance) (Carcinogen: NONE USED, Dose [Inhibitor]: 450 MG/KG IN SESAME OIL 3/WK BEGINNING AT 5-6 WK OF AGE AND CONTINUING FOR DURATION OF STUDY (STUDY DURATION: 18 MO), Route [Inhibitor]: INTRAGASTRIC, Species: MOUSE, Strain/Sex: C3H-A/A/FEMALE, Target Tissue: Type of Lesion: MAMMARY GLAND: TUMOR, Promoter: NONE USED): 21/78 (27%), 9/77 (12%), 56%, p<0.05
tumour outcome (control, treated, inhibition, significance) (Carcinogen: NONE USED, Dose [Inhibitor]: 450 MG/KG IN SESAME OIL 3/WK BEGINNING AT 5-6 WK OF AGE AND CONTINUING FOR DURATION OF STUDY (STUDY DURATION: 18 MO), Route [Inhibitor]: INTRAGASTRIC, Species: MOUSE, Strain/Sex: C3H-AVY/A/FEMALE, Target Tissue: Type of Lesion: MAMMARY GLAND: TUMOR, Promoter: NONE USED): 19/27 (70%), 5/23 (22%), 68%, p<0.005
tumour outcome (control, treated, inhibition, significance) (Carcinogen: NONE USED, Dose [Inhibitor]: 450 MG/KG IN SESAME OIL 3/WK FOR DURATION OF STUDY (STUDY DURATION: 9 MO), Route [Inhibitor]: INTRAGASTRIC, Species: MOUSE, Strain/Sex: C3H-AVY/A/FEMALE, Target Tissue: Type of Lesion: MAMMARY GLAND: TUMOR, Promoter: NONE USED): 14/26 (54%), 0/24 (0%), 100%, not calculated
